How the values were obtained:
[1] = molecular target: T1, Acetylcholinesterase (Rattus norvegicus, UniProt P37136)
T1 sequence (P37136 whole entry): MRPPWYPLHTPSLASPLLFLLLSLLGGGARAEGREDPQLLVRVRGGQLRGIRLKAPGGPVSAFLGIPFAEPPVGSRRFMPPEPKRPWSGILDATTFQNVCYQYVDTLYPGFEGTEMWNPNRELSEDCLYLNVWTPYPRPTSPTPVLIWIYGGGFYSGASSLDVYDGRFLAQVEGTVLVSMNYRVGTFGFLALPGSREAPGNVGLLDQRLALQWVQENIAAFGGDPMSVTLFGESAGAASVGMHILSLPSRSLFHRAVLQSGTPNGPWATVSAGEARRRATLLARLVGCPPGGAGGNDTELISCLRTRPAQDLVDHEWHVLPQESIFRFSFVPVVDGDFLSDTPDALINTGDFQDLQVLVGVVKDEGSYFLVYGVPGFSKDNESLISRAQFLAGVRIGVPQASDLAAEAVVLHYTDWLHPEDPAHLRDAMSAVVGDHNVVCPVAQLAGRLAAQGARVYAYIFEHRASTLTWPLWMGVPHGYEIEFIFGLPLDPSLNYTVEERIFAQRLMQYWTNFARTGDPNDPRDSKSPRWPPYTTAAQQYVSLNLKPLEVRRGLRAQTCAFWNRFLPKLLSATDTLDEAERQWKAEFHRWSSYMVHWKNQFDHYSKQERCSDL
Description: Inhibition of acetylcholinesterase (AChE)

[2] = organism: Rattus norvegicus; settings: dose 10 mg/kg; route oral
Description: Number of circlings observed for 30 min at 10 mg/kg orally administered dose in rats

[3] = tested on: Rattus norvegicus; test: Peripheral cholinergic effects in male wistar rats when administered orally at a dose of 10 mg/Kg.; assay type: functional, organism-based
[4] = tested on: Rattus norvegicus; test: Peripheral cholinergic effects in male wistar rats when administered orally at a dose of 3 mg/Kg.; assay type: functional, organism-based
[5] = tested on: Rattus norvegicus; test: Effect of compound on peripheral cholinergic effects in male wistar rats when administered orally at a dose of 30 mg/Kg; fasciculation, lacrimation; assay type: functional, organism-based
[6] = tested on: Rattus norvegicus; test: Number of circlings observed for 30 min at 3 mg/kg orally administered dose in rats; assay type: functional; settings: route oral
[7] = tested on: Rattus norvegicus; test: Effect of compound on peripheral cholinergic effects in male wistar rats when administered orally at a dose of 10 mg/Kg; fasciculation, lacrimation; assay type: functional, organism-based
[8] = tested on: Rattus norvegicus; test: Effect of compound on peripheral cholinergic effects in male wistar rats when administered orally at a dose of 10 mg/Kg; salivation; assay type: functional, organism-based
[9] = tested on: Rattus norvegicus; test: Effect of compound on peripheral cholinergic effects in male wistar rats when administered orally at a dose of 30 mg/Kg; fasciculation, salivation; assay type: functional, organism-based
[10] = tested on: Rattus norvegicus; test: Effect of compound on peripheral cholinergic effects in male wistar rats when administered orally at a dose of 30 mg/Kg; fasciculation, lacrimation, salivation; assay type: functional, organism-based
[11] = organism: Rattus norvegicus; test: Inhibition of circling behavior, percentage of control was reported; (p<0.05); assay type: functional; parameters: scale not given: the % may be the effect or the level left
[12] = tested on: Rattus norvegicus; test: Number of circlings observed for 30 min at 1 mg/kg orally administered dose in rats; assay type: functional; settings: route oral
[13] = tested on: Rattus norvegicus; test: Effect of compound on peripheral cholinergic effects in male wistar rats when administered orally at a dose of 1 mg/Kg; No significant change; assay type: functional, organism-based
[14] = tested on: Rattus norvegicus; test: Effect of compound on peripheral cholinergic effects in male wistar rats when administered orally at a dose of 3 mg/Kg; fasciculation; assay type: functional, organism-based
[15] = tested on: Rattus norvegicus; test: Effect of compound on peripheral cholinergic effects in male wistar rats when administered orally at a dose of 10 mg/Kg; fasciculation, salivation; assay type: functional, organism-based
[16] = tested on: Rattus norvegicus; test: Effect of compound on peripheral cholinergic effects in male wistar rats when administered orally at a dose of 30 mg/Kg; […]; assay type: functional, organism-based
[17] = tested on: Rattus norvegicus; test: Effect of compound on peripheral cholinergic effects in male wistar rats when administered orally at a dose of 3 mg/Kg; salivation; assay type: functional, organism-based
[18] = tested on: Rattus norvegicus; test: Effect of compound on peripheral cholinergic effects in male wistar rats when administered orally at a dose of 30 mg/Kg; fasciculation, diarrhea; assay type: functional, organism-based

Compound | IC50 [1] | Activity [4] | No. of circlings [6] | other results
O=C(CCC1CCN(Cc2cccc(Cl)c2)CC1)c1ccc2c(c1)CCCN2Cc1ccccc1 | 164 nM | – | – | No. of circlings [2]: 88
O=C(CCC1CCN(Cc2cccc(Cl)c2)CC1)c1ccc2c(c1)NCCCC2 | 333 nM | – | – | –
O=C(CCC1CCN(Cc2ccccc2)CC1)c1ccc2c(c1)CCN2Cc1ccccc1 | – | No activity | 66.8 | Activity [3]: Fasciculation; Activity [5]: Fasciculation, Lacrimation
O=C(CCC1CCN(Cc2ccccc2)CC1)c1ccc2c(c1)CCN2 | – | No activity | 52.4 | Activity [7]: Fasciculation, Lacrimation; Activity [5]: Fasciculation, Lacrimation
O=C(CCC1CCN(Cc2cccc([N+](=O)[O-])c2)CC1)c1ccc2c(c1)NCCCC2 | 390 nM | – | – | –
O=C(CCC1CCN(Cc2cccc(F)c2)CC1)c1ccc2c(c1)NCCCC2 | – | No activity | 98.4 | Activity [3]: Fasciculation; Activity [5]: Fasciculation, Lacrimation
O=C(CCC1CCN(Cc2ccccc2F)CC1)c1ccc2c(c1)CCN2 | 43 nM | No activity | – | Activity [8]: Salivation; Activity [9]: Fasciculation, Salivation; No. of circlings [2]: 86.7
O=C(CCC1CCN(Cc2ccccc2Cl)CC1)c1ccc2c(c1)CCN2 | 76 nM | – | – | No. of circlings [2]: 67.5
O=C(CCC1CCN(Cc2ccc(Cl)cc2)CC1)c1ccc2c(c1)CCN2 | 6360 nM | – | – | –
CCN1CCCCc2ccc(C(=O)CCC3CCN(Cc4ccccc4)CC3)cc21 | 376 nM | – | – | –
CCN1CCc2cc(C(=O)CCC3CCN(Cc4ccccc4)CC3)ccc21 | – | No activity | 89.7 | Activity [3]: Fasciculation; Activity [9]: Fasciculation, Salivation
O=C(CCC1CCN(Cc2cccc(F)c2)CC1)c1ccc2c(c1)CCN2 | – | No activity | 84.3 | Activity [3]: Fasciculation
O=C(CCC1CCN(Cc2ccccc2)CC1)c1ccc2c(c1)N(Cc1ccccc1)CCCC2 | 3140 nM | – | – | –
CN1CCCc2ccc(C(=O)CCC3CCN(Cc4ccccc4)CC3)cc21 | – | No activity | 105.6 | Activity [3]: Fasciculation; Activity [5]: Fasciculation
CN1CCc2cc(C(=O)CCC3CCN(Cc4ccccc4)CC3)ccc21 | – | No activity | 68.7 | Activity [7]: Fasciculation, Lacrimation; Activity [10]: Fasciculation, Lacrimation, Salivation; Control [11]: 56.4%; No. of circlings [2]: 51.9
O=C(CCC1CCN(Cc2ccccc2)CC1)c1ccc2c(c1)NCC2 | – | – | – | No. of circlings [12]: 107.9
CN1CCCc2cc(C(=O)CCC3CCN(Cc4cccc(Cl)c4)CC3)ccc21 | 24 nM | – | 54.5 | Activity [13]: No activity; Activity [7]: Fasciculation, Lacrimation; Activity [14]: Fasciculation; Activity [10]: Fasciculation, Lacrimation, Salivation; Control [11]: 58%; No. of circlings [12]: 76.5
O=C(CCC1CCN(Cc2ccccc2)CC1)c1ccc2c(c1)CCCCN2 | – | No activity | 94.7 | Activity [3]: Fasciculation; Activity [9]: Fasciculation, Salivation
COc1cccc(CN2CCC(CCC(=O)c3ccc4c(c3)CCN4)CC2)c1 | 2680 nM | – | – | –

Compound | IC50 [1] | Activity [4] | No. of circlings [6] | other results
COc1ccccc1CN1CCC(CCC(=O)c2ccc3c(c2)CCN3)CC1 | 812 nM | – | – | –
O=C(CCC1CCN(Cc2cccc(Cl)c2)CC1)c1ccc2c(c1)CCN2 | 59 nM | – | – | No. of circlings [2]: 94.9
O=C(CCC1CCN(Cc2cccc([N+](=O)[O-])c2)CC1)c1ccc2c(c1)CCN2 | – | – | – | No. of circlings [2]: 91.1
CCCCCN1CCc2cc(C(=O)CCC3CCN(Cc4ccccc4)CC3)ccc21 | – | No activity | 79 | Activity [15]: Fasciculation, Salivation
CN1CCCCc2ccc(C(=O)CCC3CCN(Cc4ccccc4)CC3)cc21 | – | No activity | 100.3 | Activity [3]: Fasciculation
Cc1cccc(CN2CCC(CCC(=O)c3ccc4c(c3)NCCCC4)CC2)c1 | 224 nM | No activity | – | Activity [16]: Fasciculation; No. of circlings [2]: 61.4
O=C(CCC1CCN(Cc2ccccc2)CC1)c1ccc2c(c1)NCCCCC2 | – | – | – | Activity [13]: No activity; Activity [7]: Fasciculation, Lacrimation; Activity [17]: Salivation; Activity [5]: Fasciculation, Lacrimation; No. of circlings [12]: 60.7
Cc1cccc(CN2CCC(CCC(=O)c3ccc4c(c3)CCN4)CC2)c1 | – | No activity | 104 | Activity [3]: Fasciculation
O=C(CCC1CCN(Cc2ccccc2)CC1)c1ccc2c(c1)NCCC2 | – | No activity | 60.5 | Activity [3]: Fasciculation
O=C(CCC1CCN(Cc2ccc(F)cc2)CC1)c1ccc2c(c1)NCCCC2 | 393 nM | – | – | –
O=C(CCC1CCN(Cc2ccccc2)CC1)c1ccc2c(c1)N(Cc1ccccc1)CC2 | 853 nM | – | – | –
O=C(CCC1CCN(Cc2ccc(F)cc2)CC1)c1ccc2c(c1)CCN2 | 89 nM | No activity | 107.4 | Activity [7]: Fasciculation, Lacrimation; Activity [5]: Fasciculation, Lacrimation
O=C(CCC1CCN(Cc2cccc(Cl)c2)CC1)c1ccc2c(c1)CCCN2 | 54 nM | – | 77.4 | Activity [13]: No activity; Activity [3]: Fasciculation; Activity [14]: Fasciculation; Activity [5]: Fasciculation, Lacrimation; No. of circlings [12]: 70.1
COc1ccccc1CN1CCC(CCC(=O)c2ccc3c(c2)NCCCC3)CC1 | 2620 nM | – | – | –
O=C(CCC1CCN(Cc2ccccc2)CC1)c1ccc2c(c1)N(Cc1ccccc1)CCC2 | 1490 nM | – | – | –
COc1cccc(CN2CCC(CCC(=O)c3ccc4c(c3)NCCCC4)CC2)c1 | 847 nM | – | – | –
CCCN1CCc2cc(C(=O)CCC3CCN(Cc4ccccc4)CC3)ccc21 | – | – | – | No. of circlings [2]: 81
CCCN1CCCCc2ccc(C(=O)CCC3CCN(Cc4ccccc4)CC3)cc21 | 1330 nM | – | – | –
CCCCN1CCc2cc(C(=O)CCC3CCN(Cc4ccccc4)CC3)ccc21 | – | No activity | 86.4 | Activity [3]: Fasciculation; Activity [18]: Fasciculation, Diarrhea

Reference: ChEMBL document CHEMBL1127586, “Central cholinergic agents. 6. Synthesis and evaluation of 3-[1-(phenylmethyl)-4-piperidinyl]-1-(2,3,4,5-tetrahydro-1H-1-benzazepi n-8-yl)-1-propanones and their analogs as central selective acetylcholinesterase inhibitors” (J Med Chem, 1994)
